The text below walks through data of PubChem BioAssay (NCI).

Experiment in all cases: NCI-60 cell line screen, 48 h
Assay [1] concerns OVCAR-8 ovarian.
The subject of assay [2] is HCT-116 colon.
The test system of assay [3] is HT29 colon.
Assay [4] has as its system SNB-75 CNS.
Assay [5] deals with KM12 colon.
Assay [6] deals with NCI-H522 lung.
Assay [7] deals with CCRF-CEM leukemia.
The test system of assay [8] is OVCAR-5 ovarian.
Assay [9] concerns K-562 leukemia.
The subject of assay [10] is OVCAR-4 ovarian.

Where “and” joins values, the source holds several entries; their conditions need not be identical. Equal values may be shown once.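 The compound was tested at five concentrations on cells cultured in 96-well plates, with a 48-hour exposure period. GI50 is the concentration that inhibits growth by half. Definition used: TGI = concentration required for complete inhibition of growth.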 Where a SMILES comes first, the peptide text is derived from it. [ ]: non-standard residue; d: D form. 2Nal = N[CH](Cc1ccc2ccccc2c1)C(=O)O

For `O=C(Nc1cccc(Cl)c1)c1cc(N=Nc2ccc([N+](=O)[O-])cc2Cl)ccc1O`, the GI50 in assay [1] is 3.04 µM; in [2] it was 2.81 µM; in assay [3] it was 2.83 µM; in [4], 2.65 µM; in assay [5], 1.57 µM; in assay [6], 2.94 µM. In addition, the GI50 in [7] was 2.16 µM; in assay [8], 2.81 µM; in [9], 1.95 µM; in [10], 2.67 µM. The TGI is 18 µM in [1]; 8.25 µM in assay [2]; 9.5 µM in assay [3]; 20.5 µM in assay [4]; 4.61 µM in [5]; 6.95 µM in [6]. Besides, the TGI is 5.81 µM in assay [7], 10.6 µM in [8], 4.72 µM in [9] and > 100 µM in assay [10].
Consider `Cc1cc(NNC(=O)c2ccccc2O)nc(Nc2nc3ccccc3o2)n1`, for which the GI50 in assay [1] was 1.9 µM; in assay [2], 1.06 µM; in assay [3], 3.31 µM; in assay [4] it was 3.49 µM; in assay [5], 1.01 µM; in assay [6], 2.5 µM. The values for the GI50 in assay [8], in [9] and in assay [10] were 2.52 µM, 2.31 µM and 0.79 µM, respectively. Besides, the TGI amounted to 12.8 µM in [1]; 7.47 µM in assay [2]; 15.4 µM in assay [3]; 17.4 µM in assay [4]; 35.2 µM in assay [5]; 12.9 µM in [6]. Moreover, the TGI in assay [7] is 11.8 µM; in assay [8], 15.9 µM; in [9] it was > 66.2 µM; in [10] it was 7.06 µM.
On to `C=C1C(=O)OC2C1C(OC(=O)/C(C)=C\C)CC1(CO1)C1C(O)C=C(C)C21O` (stereo unspecified), for which the TGI in [1] was 6.03 µM; in assay [2] it was 3.29 µM; in [3], 31.4 µM; in assay [4] it was 29.2 µM; in assay [5] it was 24.4 µM; in [6] it was 2.3 µM. The TGI was > 100 µM in [7], 34.3 µM in [8], > 100 µM in [9] and 20.7 µM in [10].
For `COc1ccc(/C=C\c2cc(OC)c(OC)c(OC)c2)c(O)c1O`, the GI50 in [1] was 0.0517 µM; in [2] it was 0.136 µM and 1.33 µM; in assay [3], 20.1 µM; in [4], 2.36 µM; in assay [5] it was 0.0568 µM; in [7], 0.274 µM. For the same compound, the GI50 in assay [8] was 43.7 µM; in assay [9], 0.333 µM; in assay [10] it was 0.959 µM. Further, the TGI was 7.13 µM and 9.64 µM in assay [1]; 14.3 µM and 24 µM in assay [2]; 36.1 µM and 103 µM in assay [3]; 20.7 µM and 48.2 µM in assay [4]; 7.42 µM and 25.4 µM in assay [5]; 0.262 µM and 0.823 µM in assay [6]. The TGI in assay [7] is 30.8 µM and 11.4 µM; in [8], 51.8 µM and 96.4 µM; in [9], 13.2 µM and 37.1 µM; in assay [10], 17 µM and 63.5 µM.
On to `O=C(c1ccccc1)c1c(CC(O)c2ccccc2)n(C(=O)c2ccccc2)c2ccccc12` (stereo unspecified), for which the TGI in assay [1] was > 100 µM; in [2] it was > 100 µM; in [3], > 100 µM; in assay [4] it was 58.2 µM; in [5], > 100 µM; in assay [6], 64.7 µM. The TGI in assay [7], in assay [8], in [9] and in assay [10] was > 100 µM each time.
In the case of `C1CCN2CC3CCCN4CCCC(C2C1)C34` (stereo unspecified), the TGI in [1], in assay [2], in [3], in assay [4], in [5] and in [6] was > 100 µM each time. Also, the TGI in [7], in assay [8], in [9] and in [10] was > 100 µM each time. Besides, the GI50 in assay [10] was > 100 µM and 24.7 µM.
`CC(C)C(NC(=O)C(CCCCN)NC(=O)C(Cc1c[nH]c2ccccc12)NC(=O)C(Cc1ccc(O)cc1)NC(=O)C(CS)NC(=O)C(N)Cc1ccc2ccccc2c1)C(=O)NC(CS)C(=O)NC(C(N)=O)C(C)O` (stereo unspecified) (H-[2Nal]CYWKVCT-NH2; configuration not given here): the GI50 in assay [1] is > 100 µM; in assay [2] it was 2.52 µM; in assay [3], > 100 µM; in assay [5] it was > 100 µM; in [7], > 100 µM; in [9], > 100 µM. Also, the GI50 in assay [10] was > 100 µM. Also, the TGI in [1] was > 100 µM; in assay [2], > 12.5 µM and 10.9 µM; in assay [3], > 100 µM; in assay [4], > 100 µM; in assay [5] it was > 100 µM; in assay [6], > 12.5 µM. The TGI in [7] is > 100 µM; in assay [8], > 12.5 µM; in [9], > 100 µM; in assay [10] it was > 100 µM.
For `C#CCN(N=O)C(=O)NCCCC(NC(C)=O)C(=O)NCc1ccccc1` (stereo unspecified), the TGI in assay [1], in [2], in assay [3], in assay [4], in assay [5] and in assay [6] was > 100 µM each time. The TGI in assay [7] is 70.3 µM; in assay [8], > 100 µM; in assay [9], > 100 µM; in [10], > 100 µM.
As for `CSc1ccc(C2=NN(C(C)=O)C(c3ccc(F)cc3)C2)cc1` (stereo unspecified), the GI50 in [1] is 19.4 µM; in assay [2], 7.11 µM; in [3], 15.2 µM; in [4] it was 20 µM; in assay [5] it was 12.8 µM; in assay [6] it was 14.7 µM. Also, the GI50 in assay [7] was 0.617 µM; in assay [8], 18.9 µM; in assay [9], 14.5 µM; in [10], 15.9 µM. For the same compound, the TGI in assay [1] was determined as 42 µM; in assay [2], 20.1 µM; in assay [3] it was 46 µM; in assay [4], 44.1 µM; in assay [5], 36.5 µM; in assay [6], 34.5 µM. For the same compound, the TGI is 24.5 µM in assay [7], 43.7 µM in [8], 36 µM in [9] and 37.5 µM in assay [10].
